Like-named read-outs stand apart in the source and are kept apart here.

The source of these data is patent US5656440A, “Nucleotide sequences coding for the bovine β3 -adrenergic receptor (ARβ3) and their applications” (Virbac, priority 1993, dated 1997).

The target in assay [1] is T1, bovine ARβ3 receptor (Bos taurus, UniProt P46626).
T1 construct: to liberate the 1598-base pair fragment containing the coding region of the bovine β3 gene; expressed in transfected cells
The assay can be described thus: competitive binding of ligands against [^125 I]cyanopindolol on intact CHO cells, bovine receptor (clone 62-26). The protocol:
Reaction is stopped by dilution with ice-cold PBS, the cells are filtered off and the radioactivity is measured in a gamma counter. The results were analysed using Graph-Pad.COPYRGT. software.

The target of assay [2] is T1, bovine ARβ3 receptor. The assay is described as follows: adenylate cyclase activation (cAMP accumulation) in CHO cells, bovine receptor (clone 62-26). In kind it is cell-based. The following applies: for Emax: CHO; for Emax / Emax at 100 µM: 0.5 h, read-out: Accumul. cAMP IA (intrinsic activity). More on the design: Emax: dose or concentration left out as unconfirmed. The method, then:
Briefly, preconfluent cells in six-well plates (0.6×10^6 cells/well) are placed in contact or otherwise with increasing doses of ligands for 30 minutes at 37° C. Reaction is stopped by washing in PBS at 4° C. and adding 500 μl of 1N NaOH. After centrifugation and neutralization with 1N acetic acid, the cell lysates are recovered and the total amount of cAMP accumulated is determined using a commercial assay kit.
In general terms: Cyclic AMP is a second messenger, typically raised through Gs and lowered through Gi signalling.

In assay [3] the target is mouse ARβ3 receptor. The following applies: Mouse RAβ3-CHO; read-out: Binding Ki; cited from earlier work.
Assay [4] deals with mouse ARβ3 receptor. The following applies: cited from earlier work; for Accumul. cAMP IA (intrinsic activity) / EC50: Mouse RAβ3-CHO; for Accumul. cAMP IA (intrinsic activity): ratio of effect of ligand at 10^-4 M to effect of isoproterenol at 10^-4 M, 100 µM; for EC50: read-out: Accumul. cAMP Kact (adenylate cyclase activation constant); for functional character (agonist/antagonist): mouse ARβ3.

The target in assay [5] is human ARβ3 receptor. The following applies: Human RAβ3-CHO; read-out: Binding Ki; cited from earlier work.
Assay [6] concerns human ARβ3 receptor. The following applies: cited from earlier work; for Accumul. cAMP IA (intrinsic activity) / EC50: Human RAβ3-CHO; for Accumul. cAMP IA (intrinsic activity): ratio of effect of ligand at 10^-4 M to effect of isoproterenol at 10^-4 M, 100 µM; for EC50: read-out: Accumul. cAMP Kact (adenylate cyclase activation constant); for functional character (agonist/antagonist): human ARβ3.

Another assay concerns β1 -, β2 - and β3 -AR. The following applies: β1, β2, β3 subtypes; cited from earlier work.
For the next assay, the system named is bovine ARβ3. The assay is described as follows: binding of [^125 I]cyanopindolol to transfected cells stably expressing ARβ3. The text has this: Stable colonies are screened for their capacity to bind specifically to [^125 I]cyanopindolol and also for their capacity to stimulate adenylate cyclase in the presence of isoproterenol, in accordance with protocol described in TATE et al., Eur. J. Biochem., 191, 196, 357-361.

Where [7] appears, read: BovineRAβ3-CHO, 0.5 nM [^125 I]cyanopindolol, 30 minutes at 37° C., read-out: Binding Ki.
[8] abbreviates: BovineRAβ3-CHO, ratio of effect of ligand at 10^-4 M to effect of isoproterenol at 10^-4 M.
[9] abbreviates: BovineRAβ3-CHO, 30 minutes at 37° C., read-out: Accumul. cAMP Kact (adenylate cyclase activation constant).

T1 sequence (P46626 whole entry, the tested form may be a part): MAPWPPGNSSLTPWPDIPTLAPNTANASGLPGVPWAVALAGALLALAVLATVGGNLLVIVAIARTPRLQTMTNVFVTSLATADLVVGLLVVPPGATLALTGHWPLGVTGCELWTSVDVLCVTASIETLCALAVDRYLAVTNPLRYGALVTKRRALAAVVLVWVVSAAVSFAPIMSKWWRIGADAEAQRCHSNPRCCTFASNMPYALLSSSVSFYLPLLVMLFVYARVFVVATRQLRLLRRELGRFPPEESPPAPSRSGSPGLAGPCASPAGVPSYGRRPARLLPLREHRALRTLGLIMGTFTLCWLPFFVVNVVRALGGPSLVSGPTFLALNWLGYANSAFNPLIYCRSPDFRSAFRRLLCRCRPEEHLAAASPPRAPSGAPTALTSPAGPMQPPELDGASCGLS

`C[C@H](Cc1ccc(OCC(=O)O)cc1)NC[C@H](O)c1cccc(Cl)c1` (relative stereo) [BRL 37344]: the figures for the Ki at bovine ARβ3 receptor [1], at mouse ARβ3 receptor [3] and at human ARβ3 receptor [5] were 2.13 ± 1.4 nM, 290 ± 136 nM and 287 ± 92 nM, respectively. The values for the EC50 on bovine ARβ3 receptor [2], at mouse ARβ3 receptor [4] and on human ARβ3 receptor [6] were 0.3 nM, 0.4 ± 0.1 nM and 15 ± 3 nM, respectively. The Emax at bovine ARβ3 receptor [2] amounted to 84 ± 10%. For the same compound, the “Accumul. cAMP IA (intrinsic activity)” value in the assay with mouse ARβ3 receptor [4] was 1.07 ± 0.08; in the assay on human ARβ3 receptor [6], 1.11 ± 0.12. The described agonist/antagonist class result with β1 -, β2 - and β3 -AR is “β1 -, β2 - and β3 -AR-receptor agonists”.

On to `Cc1ccc(Cl)c(OCC(O)CNC(C)(C)C)c1` (single isomer, unassigned; (-)) [(-) bupranolol, bupranolol], for which the Ki at bovine ARβ3 receptor [1] (setting [7]) is 85 ± 40 nM; at mouse ARβ3 receptor [3], 42 ± 19 nM; at human ARβ3 receptor [5], 50 ± 14 nM. Also, on bovine ARβ3 receptor [2] (setting [8]), the Emax at 100 µM worked out at 34 ± 1%. Moreover, the EC50 at bovine ARβ3 receptor [2] (setting [9]) is 507 nM. The “functional character (agonist/antagonist)” value is recorded as “partial agonist” at bovine ARβ3 receptor [2] (bovine ARβ3); “antagonist” in the assay with mouse ARβ3 receptor [4]; “potent antagonist” in the assay on mouse ARβ3 receptor [4] (listed as bupranolol); “antagonist” in the assay on human ARβ3 receptor [6]; “potent antagonist” in the assay on human ARβ3 receptor [6] (listed as bupranolol). Further, the described agonist/antagonist class result with β1 -, β2 - and β3 -AR was “antagonist of the three subtypes of receptor”.

`CC(C)NCC(O)c1ccc(O)c(O)c1` (single isomer, unassigned; (-)) [(-) isproterenol, (-)-iso-proterenol] gave a Ki at bovine ARβ3 receptor [1] of 84 ± 81 nM. On bovine ARβ3 receptor [2], the EC50 worked out at 14 ± 2 nM and the Emax turned out to be 90 ± 10%. The Ki on human ARβ3 receptor [5] is 620 nM. For the same compound, the described agonist/antagonist class result in the assay with β1 -, β2 - and β3 -AR was “β1 -, β2 - and β3 -AR-receptor agonists”.

For `CNC[C@H](O)c1ccc(O)c(O)c1` [(- ) epinephrine, (-)-epinephrine], the Ki on bovine ARβ3 receptor [1] (setting [7]) is 11100 nM; at mouse ARβ3 receptor [3], 4600 nM; on human ARβ3 receptor [5] it was 20600 nM. The EC50 on bovine ARβ3 receptor [2] (setting [9]) is 50.7 nM; on mouse ARβ3 receptor [4], 23 ± 0.3 nM; on human ARβ3 receptor [6], 49 ± 5 nM. Also, the Emax on bovine ARβ3 receptor [2] worked out at 80 ± 30%. Also, the “Accumul. cAMP IA (intrinsic activity)” value is recorded as 0.91 ± 0.03 in the assay on mouse ARβ3 receptor [4] and 1.00 ± 0.04 with human ARβ3 receptor [6]. Besides, the described agonist/antagonist class entry in the assay with β1 -, β2 - and β3 -AR was “β1 -, β2 - and β3 -AR-receptor agonists”.

For `CC(C)NC[C@H](O)COc1cccc2ccccc12` [(- ) propranolol, (-)-propranolol], the “functional character (agonist/antagonist)” value with mouse ARβ3 receptor [4] is given as “antagonist”. In addition, in the assay on human ARβ3 receptor [6], the “Accumul. cAMP IA (intrinsic activity)” value is 0.51 ± 0.12 and the “functional character (agonist/antagonist)” value is “partial agonist”.

Regarding `NC[C@H](O)c1ccc(O)c(O)c1` [(-) norepinephrine, (-)-norepinephrine], the Ki on bovine ARβ3 receptor [1] was 423 ± 255 nM; at mouse ARβ3 receptor [3], 1840 nM; on human ARβ3 receptor [5] it was 475 ± 75 nM. The EC50 at bovine ARβ3 receptor [2] is 54 ± 4.3 nM; at mouse ARβ3 receptor [4] it was 13 ± 4 nM; at human ARβ3 receptor [6], 6.32 ± 0.7 nM. The Emax on bovine ARβ3 receptor [2] amounted to 100 ± 50%. Besides, the results for the “Accumul. cAMP IA (intrinsic activity)” value with mouse ARβ3 receptor [4] and in the assay on human ARβ3 receptor [6] were 1.06 ± 0.06 and 1.00, respectively. In the assay with β1 -, β2 - and β3 -AR, the described agonist/antagonist class result was “β1 -, β2 - and β3 -AR-receptor agonists”.

In the case of `CC(C)(Cc1c[nH]c2ccccc12)NCC(O)COc1ccccc1C#N` (stereo not drawn) [Bucindolol, bucindolol], the Ki at bovine ARβ3 receptor [1] (setting [7]) is 73 ± 42 nM; on mouse ARβ3 receptor [3], 21 ± 5 nM; at human ARβ3 receptor [5], 23 ± 10 nM. Also, the Emax at 100 µM on bovine ARβ3 receptor [2] (setting [8]) stood at 99 ± 10%. Also, the EC50 is 12.8 nM at bovine ARβ3 receptor [2] (setting [9]), 40 ± 14 nM at mouse ARβ3 receptor [4] and 7 ± 1.2 nM on human ARβ3 receptor [6]. Also, the “Accumul. cAMP IA (intrinsic activity)” value in the assay with mouse ARβ3 receptor [4] is 1.11 ± 0.06; in the assay with human ARβ3 receptor [6] it was 1.01 ± 0.10. Further, the described agonist/antagonist class entry with β1 -, β2 - and β3 -AR is given as “specific for the ARβ3 receptor (β1 -, β2 -AR antagonists)”.

For the compound `CC(C)(C)NCC(O)COc1cccc2[nH]c(=O)[nH]c12` (stereo not drawn) [CGP 12177A], the values for the Ki at bovine ARβ3 receptor [1] (setting [7]), at mouse ARβ3 receptor [3] and at human ARβ3 receptor [5] were 218 ± 161 nM, 152 ± 19 nM and 88 ± 22 nM, respectively. Also, the Emax at 100 µM at bovine ARβ3 receptor [2] (setting [8]) worked out at 93 ± 20%. Further, the values for the EC50 at bovine ARβ3 receptor [2] (setting [9]) and on human ARβ3 receptor [6] were 1.41 nM and 139 ± 44 nM, respectively. The “Accumul. cAMP IA (intrinsic activity)” value with human ARβ3 receptor [6] is listed as 0.68 ± 0.02. Further, the described agonist/antagonist class result in the assay with β1 -, β2 - and β3 -AR was “specific for the ARβ3 receptor (β1 -, β2 -AR antagonists)”.

Regarding `O=C(O)COc1ccc(OCCNCC(O)COc2ccccc2)cc1` (stereo not drawn) [ICI 201651], the Ki was 27.7 ± 24 nM at bovine ARβ3 receptor [1] (setting [7]), 239 ± 104 nM on mouse ARβ3 receptor [3] and 85 ± 12 nM at human ARβ3 receptor [5]. Besides, the EC50 on bovine ARβ3 receptor [2] (setting [9]) is 1.1 nM; on mouse ARβ3 receptor [4] it was 15 ± 1 nM; at human ARβ3 receptor [6], 20 ± 9 nM. Moreover, the “Accumul. cAMP IA (intrinsic activity)” value on bovine ARβ3 receptor [2] (BovineRAβ3-CHO, ratio of effect of ligand at 10^-4 M to effect of isoproterenol at 10^-4 M, 30 min, 100 µM) was 0.85 ± 0.1; in the assay on mouse ARβ3 receptor [4] it was 1.02 ± 0.02; in the assay with human ARβ3 receptor [6], 1.14 ± 0.14. In the assay on β1 -, β2 - and β3 -AR, the described agonist/antagonist class entry is “specific for the ARβ3 receptor (β1 -, β2 -AR antagonists)”.

On to `CC(C)(C)NCC(O)COc1cccc2[nH]c(C#N)c([125I])c12` (stereo not drawn) [[^125 I]cyanopindolol], for which the “binding affinity compared to ARβ3 in man or in mouse” value in the assay on bovine ARβ3 is recorded as “affinity equivalent to that of the corresponding ARβ3 in man or in mouse”.

One may read the Ki as the equilibrium dissociation constant of an inhibitor or competing ligand from its target.
